Like-named read-outs stand apart in the source and are kept apart here.
Key:
[1] = biological target: recombinant SARS-CoV-2 Main protease (Mpro) (Severe acute respiratory syndrome coronavirus 2 (2019-nCoV) (SARS-CoV-2), UniProt P0DTD1); test: Cov Mpro Biochemical IC50 Assay; settings: read-out: MPro IC50
SARS-CoV-2-NLuc = test: microbe, parasite or virus in culture; type: cell-based, SARS Coronavirus 2
[2] = recombinant SARS-CoV-2 Mpro, fluorogenic peptide substrate
[3] = Severe acute respiratory syndrome coronavirus, 48 h; read-out: MPro EC50
[4] = Severe acute respiratory syndrome coronavirus, 48 h, read-out: MPro EC50
[5] = recombinant SARS-CoV-2 Mpro 7.5 nM, fluorogenic peptide substrate 40 μM

| SMILES | IC50 [1, 2] [nM] | EC50 (SARS-CoV-2-NLuc; [3]) [nM] | EC50 (SARS-CoV-2-NLuc; [4]) [nM] | IC50 [1, 5] [nM] | EC50 (SARS-CoV-2-NLuc; read-out: MPro EC50) [nM] |
| --- | --- | --- | --- | --- | --- |
| Cc1c(-c2ccccc2Cl)sc2c1c(=O)n(-c1cncc3ccccc13)c(=O)n2CC1CCCC1 [Example 64] | 28400 | 3140 |  |  |  |
| COCCOc1ccc(Cl)c(-c2ccc3c(=O)n(-c4cncc5ccccc45)c(=O)[nH]c3c2)c1 [Example 251] | 68.2 |  | 150 |  |  |
| COc1cc(-c2cc3c(s2)c(=O)n(-c2cncc4c2CCCC4)c(=O)n3CCC#N)c(Cl)cc1F [Example 908] |  |  | 6.84 | 7.52 |  |
| O=c1[nH]c2cc(-c3cc(Cl)c(F)cc3Cl)sc2c(=O)n1-c1cncc2ccccc12 [Example 726] |  |  | 39 | 22.8 |  |
| Cn1c(C(F)(F)F)nc2cncc(-n3c(=O)c4sc(-c5ccc(F)cc5Cl)cc4n(CCC#N)c3=O)c21 [Example 857] |  | 348 |  | 161 |  |
| COc1cc(-c2cc3c(s2)c(=O)n(-c2cncc(OC(F)F)c2)c(=O)n3CCC#N)c(Cl)cc1F [Example 872] |  |  | 37.3 | 8.39 |  |
| COc1ccc(Cl)c(-c2ccc3c(=O)n(-c4cncc5c4CCCO5)c(=O)[nH]c3c2)c1 [Example 597] |  |  | 205 | 160 |  |
| COC(=O)Cn1c(=O)n(-c2cncc3ccccc23)c(=O)c2sc(-c3ccccc3Cl)cc21 [Example 220] | 29.1 |  | 86.6 |  |  |
| O=c1[nH]c2cc(-c3ccccc3Cl)ccc2c(=O)n1-c1cncc2ccccc12 (single isomer, unassigned) [Example 105, 7-(2-chlorophenyl)-3-(isoquinolin-4-yl)quinazoline-2,4(1H,3H)-dione] | 70.9 |  |  |  | 74.3 |
| COc1cc(-c2cc3c(s2)c(=O)n(-c2cncc4ccccc24)c(=O)n3C)c(Cl)cc1F [Example 993, 6-(2-chloro-4-fluoro-5-methoxy-phenyl)-3-(4-isoquinolyl)-1-methyl-thieno[3,2-d]pyrimidine-2,4-dione] |  | 4.38 |  | 5.63 |  |
| N#Cc1cc(F)c(F)cc1-c1ccc2c(=O)n(-c3cncc4ccccc34)c(=O)[nH]c2c1 [Example 323] | 112 |  | 557 |  |  |
| COc1cc(-c2cc3[nH]c(=O)n(-c4cncc5cccc(F)c45)c(=O)c3s2)c(Cl)cc1F [Example 444, 6-(2-chloro-4-fluoro-5-methoxyphenyl)-3-(5-fluoroisoquinolin-4-yl)thieno[3,2-d]pyrimidine-2,4(1H,3H)-dione] |  |  | 8.86 | 5.45 |  |
| COc1ccc(-c2cc(C)c3ncnn3c2)c(-c2ccc3c(=O)n(-c4cncc5ccccc45)c(=O)[nH]c3c2)c1 [Example 568, 3-(4-isoquinolyl)-7-[5-methoxy-2-(8-methyl-[1,2,4]triazolo[1,5-a]pyridin-6-yl)phenyl]-1H-quinazoline-2,4-dione] |  |  | 2640 | 5670 |  |
| Cc1c(C#N)cncc1-c1cccc(Cl)c1-c1ccc2c(=O)n(-c3cncc4ccccc34)c(=O)[nH]c2c1 [Example 205] | 44 |  | 41.2 |  |  |
| Cc1nn(C)cc1-c1cccc(Cl)c1-c1cc2[nH]c(=O)n(-c3cncc(C4CC4)c3)c(=O)c2s1 [Example 617] |  |  | 19.5 | 7.26 |  |
| Cn1nnc2cncc(-n3c(=O)c4sc(-c5ccccc5Cl)cc4n(CCC#N)c3=O)c21 [Example 772] |  | 46.9 |  | 15.4 |  |
| Cc1cnc(Cl)c(-c2cc3[nH]c(=O)n(-c4cncc5cnn(C)c45)c(=O)c3s2)c1 [Example 669] |  |  | > 1000 | 336 |  |
| COc1ccc(Cl)c(-c2cc3[nH]c(=O)n(-c4cncc5ccc(N6CCS(=O)(=O)CC6)nc45)c(=O)c3s2)c1 [Example 458] |  |  | 188 | 12.1 |  |
| COc1cc(-c2cc3[nH]c(=O)n(-c4cncc5ccn(C)c45)c(=O)c3s2)c(Cl)cc1F [Example 454, 6-(2-chloro-4-fluoro-5-methoxyphenyl)-3-(1-methyl-1H-pyrrolo[3,2-c]pyridin-7-yl)thieno[3,2-d]pyrimidine-2,4(1H,3H)-dione] |  |  | 3.89 | 4.8 |  |

— patent publication US20240116946A1 (Gilead Sciences, Inc., priority 2022, published 2024)
